In article PMC3638464, “The transcriptional regulator CprK detects chlorination by combining direct and indirect readout mechanisms” (Philosophical Transactions of the Royal Society B: …, 2013):

Assays:
[1] = assigned value, source not stated; cited from earlier work
CprK [2] = target: CprK (Desulfitobacterium hafniense, UniProt B8FW11, C200S); assay: cell-based; format: cell-based; conditions: for n (Hill coefficient) / apparent Kd: in vivo, Hill fit; for n (Hill coefficient) / increase in fluorescence levels (in words): CprK C200S; for increase in fluorescence levels (in words): in vivo reporter; for apparent Kd: E. coli JM109 DE3, pGFPUV-DB7 + CprK C200S, effector concentration at half Fmax
Description: Previous studies have shown that OCPA-dependent transcriptional activation by CprK can be monitored in Escherichia coli. To avoid any effects coupled to the redox state of the cell, we used a CprK C200S mutant as the basis for all our studies (referred to hereafter as CprK), as it was previously shown that oxidative disulfide bond formation involving C200 inactivates the regulator [23]. A region comprising 123 nucleotides of the upstream dehalobox promotor region of CprA1, containing CprK binding element dehalobox 7 (DB7), was cloned into pGFPUV in order to create a novel in vivo reporter system that makes use of an optimized variant of the green fluorescent protein (GFPUV) from Aequorea victoria. […] No significant increase in fluorescence levels could be detected in the presence of OCPA or similar compounds. […] By contrast, addition of 0.6 μM OCPA to the media leads to a nearly 10-fold increase in fluorescence levels, indicating CprK-mediated, OCPA-dependent transcriptional activation of the GFPUV gene occurs within the E. coli host. […] Our apparent Kd is the binding constant calculated as the concentration at which effector induces half Fmax (maximum fluorescence). […] In contrast to the direct measurement of formation of the CprK : OCPA complex for the in vitro experiment, the in vivo data probably report on the formation of the (CprK : OCPA : dehalobox : RNA polymerase) quaternary complex. […] It appears that under the conditions used for the pGFPUV-DB7-based system, the apparent Kd for OCPA is approximately 100-fold smaller than the established […] Kd values. […] It is important to keep in mind that transport processes could affect the intracellular OCPA concentrations across the membrane, although it would seem logical to assume this would affect OCPA and OCPA-like components in a similar manner. To confirm the apparent Kd value observed reflects inherent CprK affinity for the effector molecule, we measured the increase in fluorescence levels for a range of aromatic compounds.
Overnight culture (150 μl) was plated onto 96-well optical bottom plates (Nunc). OCPA-related compounds (table 3) were then added to various end concentrations, and the plates placed on a rotary shaker at 37°C for 3 h. GFP fluorescence levels were measured using a Synergy HT microplate reader (BioTek) using a 400 nm, 30 nm bandpass excitation filter and a 508 nm, 20 nm bandpass emission filter. Data were collected using Gen5 v. 1.05 (Biotek) software. Fluorescence was normalized against cell density and measured by absorbance at 600 nm. The fluorescence ratio was plotted against effector concentration, and apparent Kd of binding was calculated using nonlinear curve fitting to a Hill plot.

CprK Y76F [3] = tested on: CprK Y76F; design: method as in PMID 16803881; conditions: previous study; cited from earlier work
CprK G85P = CprK G85P (Desulfitobacterium hafniense, UniProt B8FW11, C200S/G85P); assay: In vivo GFPUV-DB7 reporter assay, G85P CprK mutant; format: cell-based
Protocol: (§1) Table 1 and figure 3 show the dependence of fluorescence levels on OCPA concentrations for Y76F, G85A, G85P and K133L CprK mutants. […] Compared with the apparent Kd of WT CprK (0.019 ± 0.002 μM) for OCPA, the Y76F mutant has an approximately 500-fold decreased affinity for OCPA. The G85P mutation leads to an even more dramatic 4500-fold decrease, but this is probably not only a consequence of removal of the backbone NH hydrogen bond, but also because of the increased size and restricted conformational freedom of the proline side chain. […] While mutations at position 76 or 85 retain some activity, mutation at position 133 leads to a complete loss of transcriptional activation response. This clearly establishes K133 as the key contributor to the polar network established with the phenol moiety.
(§2) Overnight culture (150 μl) was plated onto 96-well optical bottom plates (Nunc). […] GFP fluorescence levels were measured using a Synergy HT microplate reader (BioTek) using a 400 nm, 30 nm bandpass excitation filter and a 508 nm, 20 nm bandpass emission filter. […] Fluorescence was normalized against cell density and measured by absorbance at 600 nm. The fluorescence ratio was plotted against effector concentration, and apparent Kd of binding was calculated using nonlinear curve fitting to a Hill plot.

CprK [4] = conditions: cited from earlier work
CprK Y76F [5] = target: CprK Y76F (Desulfitobacterium hafniense, UniProt B8FW11, C200S/Y76F); assay: In vivo GFPUV-DB7 reporter assay, Y76F CprK mutant; format: cell-based
Protocol: as §1, §2

CprK G85A = CprK G85A (Desulfitobacterium hafniense, UniProt B8FW11, C200S/G85A); assay: In vivo GFPUV-DB7 reporter assay, G85A CprK mutant; format: cell-based
Protocol: as §1, §2

CprK K133L = assay: In vivo GFPUV-DB7 reporter assay, K133L CprK mutant; format: cell-based, Desulfitobacterium hafniense
Protocol: as §1, §2

Chain of CprK (Desulfitobacterium hafniense, UniProt B8FW11, C200S) (B8FW11 entry or part of it C200S): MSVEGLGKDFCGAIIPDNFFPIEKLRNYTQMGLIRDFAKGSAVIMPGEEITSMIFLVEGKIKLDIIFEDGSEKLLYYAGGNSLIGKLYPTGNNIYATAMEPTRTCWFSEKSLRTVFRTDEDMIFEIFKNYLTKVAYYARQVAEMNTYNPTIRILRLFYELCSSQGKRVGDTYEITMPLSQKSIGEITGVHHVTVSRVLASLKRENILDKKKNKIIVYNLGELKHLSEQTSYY
Chain of CprK G85A (B8FW11 entry or part of it G85A/C200S): as the sequence (B8FW11 entry or part of it C200S) above, with G85A counted along it
Chain of CprK G85P (B8FW11 entry or part of it G85P/C200S): as the sequence (B8FW11 entry or part of it C200S) above, with G85P counted along it
Chain of CprK Y76F (Desulfitobacterium hafniense, UniProt B8FW11, C200S/Y76F) (B8FW11 entry or part of it Y76F/C200S): as the sequence (B8FW11 entry or part of it C200S) above, with Y76F counted along it

Compound | pKa value of R1 (phenol –OH) [1] | n (Hill coefficient) (CprK [2]) | apparent Kd (CprK [2]; 3 h) | other results
Cc1cc([N+](=O)[O-])ccc1O [2-methyl-4-nitrophenol] | –OH (7.4) | 1.8 ± 0.1 | – | difference between o-methyl-p-nitrophenol and p-nitrophenol (apparent Kd) (CprK [2]; apparent in vivo Kd): approximately sevenfold
O=C(O)Cc1ccc(O)c(Br)c1 [3-bromo-4-hydroxyphenylacetic acid] | –OH (8.5) | 3.2 ± 0.5 | – | –
O=C(O)Cc1ccc(O)c(F)c1 [3-fluoro-4-hydroxyphenylacetic acid] | –OH (8.8) | 1.8 ± 0.2 | – | –
Nc1ccc([N+](=O)[O-])cc1Cl [2-chloro-4-nitroaniline] | – | – | no binding | increase in fluorescence levels (in words) (CprK [2]): No increase
O=[N+]([O-])c1ccc(O)c(Cl)c1 [2-chloro-4-nitrophenol] | – | 1.7 ± 0.2 | – | –
Cc1cc([N+](=O)[O-])ccc1N [2-methyl-4-nitroaniline] | – | – | no binding | –
O=C(O)Cc1ccc(O)cc1 [HPA, 4-hydroxyphenylacetic acid] | –OH (10.2) | 2.1 ± 0.2 | – | –
O=C(O)Cc1ccc(O)c(Cl)c1 [OCPA, 3-chloro-4-hydroxyphenylacetic acid] | –OH (8.5) | 2.0 ± 0.2 | – | decrease in the Kd caused by the Y76F mutation (CprK Y76F [3]): approximately 10 fold; Kd (CprK G85P): 86.7 ± 5.8 µM; n (Hill coefficient) (CprK G85P; in vivo, G85P mutant): 1.9 ± 0.3; fold induction at 0.6 µM (CprK [2]; 3 h, read-out: increase in fluorescence levels): ~10; apparent Kd smaller than established Kd values (CprK [2]; pGFPUV-DB7 system vs earlier Kd values): approximately 100 fold; increase of CprK affinity in the presence of a DNA promoter fragment (CprK [4]): approximately 10 fold; difference in affinity between OCPA and HPA (CprK [4]; estimated from indirect in vitro measurements): ~10^4; Kd (CprK [4]; previously reported in vitro): 0.8 to 3.5 µM; Kd (CprK Y76F [5]): 10.2 ± 0.9 µM; n (Hill coefficient) (CprK Y76F [5]; in vivo, Y76F mutant): 1.6 ± 0.1; Kd (CprK G85A): 1.03 ± 0.06 µM; n (Hill coefficient) (CprK G85A; in vivo, G85A mutant): 1.5 ± 0.1; transcriptional activation response (in words) (CprK K133L): complete loss; Kd (apparent) (CprK K133L; in vivo): no response
O=[N+]([O-])c1ccc(O)c(F)c1 [2-fluoro-4-nitrophenol] | –OH (5.7) | 4.7 ± 0.6 | – | –
O=C(O)Cc1cccc(Cl)c1 [3-chloro-phenylacetic acid] | – | – | no binding | increase in fluorescence levels (in words) (CprK [2]): No increase
O=[N+]([O-])c1ccc(O)c(Br)c1 [2-bromo-4-nitrophenol] | –OH (5.5) | 2.1 ± 0.1 | – | –
O=[N+]([O-])c1ccc(O)cc1 [4-nitrophenol] | –OH (7.2) | 2.8 ± 0.2 | – | –
Nc1ccc([N+](=O)[O-])cc1 [4-nitroaniline] | – | – | no binding | –
